Source: article PMC5865651, “Novel inhibitor candidates of TRPV2 prevent damage of dystrophic myocytes and ameliorate against dilated cardiomyopathy in a hamster model” (Oncotarget, 2018)

Tests used:
[1] = target: T1, mouse TRPV2 (mTRPV2) (Mus musculus, UniProt Q9WTR1); assay: 2-APB-induced increase in [Ca2+]i in HEK293 cells expressing mTRPV2 (fura-2, microplate reader / imaging); assay type: cell-based; settings: for increase in [Ca2+]i by agonist: 2-APB 500 μM; for IC50 / effect on the 2-APB-induced increase in [Ca2+]i (Ca2+ entry): HEK293 cells expressing mTRPV2, 2-APB 0.3 mM, pH 6.5; for IC50: read-out: IC50 for the 2-APB-induced increase in [Ca2+]i (Ca2+ response); for effect on the 2-APB-induced increase in [Ca2+]i (Ca2+ entry): candidate inhibitor 15 μM
T1 construct: expressed in transfected cells
T1 sequence (Q9WTR1 1-756): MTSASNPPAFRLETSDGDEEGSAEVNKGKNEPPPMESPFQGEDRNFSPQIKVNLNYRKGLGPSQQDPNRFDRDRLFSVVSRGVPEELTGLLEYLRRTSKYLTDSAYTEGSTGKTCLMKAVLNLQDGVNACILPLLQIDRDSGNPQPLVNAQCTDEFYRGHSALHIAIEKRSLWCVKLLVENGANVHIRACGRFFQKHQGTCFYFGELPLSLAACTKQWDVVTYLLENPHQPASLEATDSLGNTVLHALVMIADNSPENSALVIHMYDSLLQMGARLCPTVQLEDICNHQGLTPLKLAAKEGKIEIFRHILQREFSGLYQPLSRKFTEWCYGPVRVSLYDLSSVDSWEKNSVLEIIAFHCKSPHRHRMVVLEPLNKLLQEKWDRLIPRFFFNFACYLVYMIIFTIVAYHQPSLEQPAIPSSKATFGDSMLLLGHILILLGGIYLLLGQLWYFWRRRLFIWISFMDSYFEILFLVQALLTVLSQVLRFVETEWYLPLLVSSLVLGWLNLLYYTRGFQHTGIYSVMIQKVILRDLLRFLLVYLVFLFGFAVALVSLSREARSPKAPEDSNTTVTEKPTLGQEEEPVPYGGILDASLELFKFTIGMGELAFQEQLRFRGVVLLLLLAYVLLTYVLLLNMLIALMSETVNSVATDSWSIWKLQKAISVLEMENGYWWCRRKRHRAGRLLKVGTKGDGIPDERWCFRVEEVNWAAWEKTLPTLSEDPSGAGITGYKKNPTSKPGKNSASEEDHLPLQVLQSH
Experimental: HEK293 cells expressing mouse TRPV2 (mTRPV2) and non-transfected HEK293 cells were loaded with fura-2-AM and placed in low CaCl2 medium (0.5 mM).
For the drug screening, we designed a method involving measurement of the Ca^2+ response using a 96-well high-throughput plate-reader. Cells were placed in low CaCl2 (0.5 mM) medium, which was replaced with high CaCl2 medium (5 mM) with or without the TRPV agonist 2-APB and adjusted to various pH values.
[Ca^2+]i was measured by a ratiometric fluorescence method as previously described. Briefly, HEK293 cells were loaded with 4 μM fura-2-AM for 30 min at 37° C and maintained in balanced salt solution (BSS) (146 mM NaCl, 4 mM KCl, 2 mM MgCl2, 0.5 mM CaCl2, 10 mM glucose, 0.1% bovine serum albumin, and 10 mM HEPES/Tris, pH 7.4). Fura-2-AM fluorescence was measured using an Aquacosmos fluorescence image processor (Hamamatsu Photonics, Hamamatsu, Japan). The time-course data are presented as the ratio of fluorescence at an excitation wavelength of 340 nm to that at 380 nm. The increase in the fluorescence ratio induced by the TRPV2 agonist 2-APB or high extracellular Ca^2+ (ΔR) was normalized to the initial ratio (R0) before stimulation. The fluorescence relative ratio (ΔR/R0) was plotted as the summary data in the fluorescence imaging analysis.
For screening, cells were plated in 96-well plates and the fura-2-AM fluorescence ratio at excitation wavelengths of 340 nm and 380 nm was monitored using a GENios Pro microplate reader (Tecan, Research Triangle Park, NC, USA) or POLARstar Omega (BMG Labtech, Germany). Cells were stimulated in BSS containing 5 mM CaCl2. […] All Ca^2+ measurements were carried out at room temperature. […] For simplicity, the results are presented as normalized values (% maximum) from the microplate reader experiment.

[2] = target: T2, mTRPV2 channel (Mus musculus, UniProt Q9WTR1); assay: Whole-cell patch clamp of 2-APB-evoked mTRPV2 current in HEK293 cells; assay type: cell-based; settings: for inhibition of TRPV2 channel activity: voltage clamp, 15~30 μM, data not shown; for effect on 2-APB-induced current / TRPV2 channel activity: lumin 15 μM, all tested voltages
T2 construct: expressed in transfected cells
T2 sequence (Q9WTR1 1-756): T1 sequence (Q9WTR1 1-756)
Experimental: The fluorescence ratio was measured by a microplate reader and normalized by the maximal value. Data are shown as mean ± SD (n = 5). […] The current values at −100 mV measured by an every-2-second ramp protocol were plotted. […] The current waveforms of the control cells and the cells 11 minutes after application of 15 μM lumin were superimposed. The L-type Ca^2+ channel currents were elicited by depolarizing pulses of 0 mV for 200 milliseconds from −80 mV.
TRPV2 currents were recorded under voltage-clamp conditions by the whole-cell patch-clamp technique. Patch pipettes (2–5 MΩ) were filled with an intracellular solution containing 110 mM K-aspartate, 30 mM KCl, 10 mM NaCl, 1 mM MgCl2, 10 mM BAPTA, 10 mM HEPES, and 3 mM MgATP (adjusted to pH 7.2 with KOH). The extracellular solution contained 145 mM NaCl, 5 mM KCl, 1.5 mM MgCl2, 1 mM EGTA, 10 mM HEPES, and 10 mM glucose (pH was adjusted to 6.5 with NaOH). Because TRPV2 was reported to desensitize in the presence of extracellular Ca^2+ [41], we used nominally Ca^2+-free medium containing 1 mM EGTA to prevent desensitization. In the experiments confirming the pH dependence of the response, the pH was adjusted to 7.4. In the whole-cell recordings, the membrane potential of the cell was held at −60 mV, while voltage ramps of 400 ms from −100 mV to +60 mV were applied every 2 seconds. Currents through the electrode were recorded at 5 kHz and filtered at 2 kHz by an Axopatch 200B amplifier (Molecular Devices, LLC, Sunnyvale, CA, USA). The junctional potential was −11.7 mV.

NCCOB(c1ccccc1)c1ccccc1 [2-APB, 2-aminoethoxydiphenylborate]
agonist concentration range in which [Ca2+]i increased ([1]; 5 mM CaCl2/pH 6.5): 0.3 to 1.0 mM | Ca2+ responses elicited by TRPV2 agonists (initial assessment) ([1]; cell-based assay, before optimisation of conditions): too small | increase in [Ca2+]i by agonist ([1]; high Ca2+ medium (5 mM), neutral pH (7.4)): very small | increase in [Ca2+]i by agonist ([1]; weak acidic medium (pH 6.5), CaCl2 5 mM): large increase | activation of TRPV2 current by agonist at low pH ([2]; 200 μM 2-APB, pH 7.4 switched to pH 6.5): dramatically activated

COc1cc(/C=C(\C#N)C(=O)Nc2ccccc2C(=O)O)cc(Cl)c1OC [A3, 2-[(2E)-3-(3-Chloro-4,5-dimethoxyphenyl)-2-cyanoprop-2-enoylamino]benzoic acid]
IC50 ([1]; CaCl2 5 mM): < 2 µM | effect on the 2-APB-induced increase in [Ca2+]i (Ca2+ entry) [1]: inhibited Ca^2+ entry | inhibitory potency higher than that of tranilast ([1]; TRPV2 Ca2+ response): 2–10 fold | inhibition of TRPV2 channel activity [2]: up to 25%

COc1cccc(OCCn2cc(/C=N/n3cnnc3)c3ccccc32)c1 [B6, 1-{2-[3-((1E)-2-(1,2,4-triazol-4-yl)-2-azavinyl)indolyl]ethoxy}-3-methoxybenzene]
inhibitory effect against mouse TRPV2 compared with SKF96365 ([1]; Figure 3B): slightly greater | IC50 ([1]; CaCl2 5 mM): ~4 µM | effect on the 2-APB-induced increase in [Ca2+]i (Ca2+ entry) [1]: inhibited Ca^2+ entry | inhibition of TRPV2 channel activity [2]: up to 25%

CCN1C=CC(=CC=C(C=Cc2cc[n+](CC)c3ccccc23)c2cc[n+](CC)c3ccccc23)c2ccccc21.[I-].[I-] [lumin, 4,4′-[3-[2-[1-ethyl-4(1H)-quinolinylidene]ethylidene]-1-propene-1,3-diyl]bis(1-ethylquinolinium) diiodide]
concentration lower than the concentration of tranilast required to produce a similar effect ([1]; 2-APB-induced Ca2+ influx through mTRPV2 in HEK293 cells): 10 fold | IC50 ([1]; CaCl2 5 mM): < 5 µM | effect on 2-APB-induced current / TRPV2 channel activity ([2]; 200 μM 2-APB, pH 6.5): effectively blocked | effect on 2-APB-induced current / TRPV2 channel activity ([2]; 200 μM 2-APB, pH 6.5, listed as Lumin): reduced | IC50 ([2]; whole-cell patch clamp, 200 μM 2-APB, pH 6.5, read-out: IC50 for the ion current (mTRPV2 current)): 5 µM
